Experimental data as given in patent EP2608671B1, “COMPOUNDS FOR TREATMENT OF CANCER” (Gtx, Inc., priority 2010, dated 2012).
Where two headings read alike, the source gives them in different places.

Key:
B16-F1 = assay: SRB cell growth inhibition (cytotoxicity) assay; format: cell-based, mouse
Description: (§1) The only compounds which belong to the invention are the ones falling under the scope of formula (XI).

A375 = assay: SRB cell growth inhibition (cytotoxicity) assay; format: cell-based, human
PC-3 = assay: cells
Description: as §1
Cells were stained with SRB solution.
Cells. […] Cells between the third and fifth passages were used for experiments.
Cell growth inhibition studies. […] Cells were stained with sulphorhodamine B (SRB) solution.

OVCAR-8 = assay: SRB growth inhibition, MDR model parent line; format: cell-based, human; details: Table 21, Ovarian, n = 3; read-out: IC50 ± SEM (nM) OVCAR-8
NCI/ADR-RES = assay: SRB growth inhibition, P-gp over-expressing MDR line; format: cell-based, human
[1] = tested on: PC-3 prostate tumor xenograft; assay: In vivo antitumor efficacy, PC-3 xenograft; set-up: species or system mouse; details: Prostate (PC-3) xenograft, 21 days
Description: (§2) PC-3 and A375 tumor xenograft studies.
(§3) In vivo antitumor activity [tumor growth inhibition (% T/C), tumor growth delay (T-C value), and tumor cell kill (total log cell kill)].

DU 145 [2] = tested on: DU 145
LNCaP [3] = tested on: LNCaP
PPC-1 [4] = tested on: PPC-1
MDA-MB-435 = assay: SRB growth inhibition, sensitive parent melanoma line; format: cell-based; details: Homo sapiens, MDA-MB-435, read-out: IC50 ± SEM (nM) (n=3), MDA-MB-435; sensitive parent melanoma cell line
MDA-MB-435/LCC6MDR1 = assay: SRB growth inhibition, multidrug-resistant melanoma line; format: cell-based; details: MDA-MB-435/LCC6 MDR1, read-out: IC50 ± SEM (nM) (n=3), MDA-MB-435/LCC6MDR1; multidrug-resistant melanoma cell line
[5] = tested on: melanoma cell lines (A375, WM-164, B16-F1) and prostate cancer cell lines (LNCaP, DU 145, PC-3, PPC-1); assay: SRB cytotoxicity, melanoma and prostate cell panel (averages); format: cell-based; details: read-out: IC50 (average over cell lines)
Description: as §1

DU 145 [6] = assay: cells; details: Homo sapiens, DU-145, 96 h, read-out: IC50 ± SEM (nM) Du 145
LNCaP [7] = assay: cells; details: Homo sapiens, 96 h, read-out: IC50 ± SEM (nM), LNCaP
PPC-1 [8] = assay: cells; details: Homo sapiens, PPC-1, 96 h, read-out: IC50 ± SEM (nM), PPC-1
[9] = tested on: A375 human melanoma xenograft; assay: In vivo antitumor efficacy, A375 melanoma xenograft; set-up: species or system mouse; details: Melanoma (A375) xenograft; for % T/C: 34 days
Method: DTIC at 60 mg/kg was used as a positive control again.
as §2, §3

PC-3/TxR tumors = details: PC-3/TxR xenograft, IV 20mpk, day 1 and 9
WM-164 = assay: SRB cell growth inhibition (cytotoxicity) assay; format: cell-based, human
[10] = Table 21, Melanoma, n = 3, read-out: IC50 ± SEM (nM) B16-F1
[11] = Table 21, Melanoma, n = 3, read-out: IC50 ± SEM (nM) A375
[12] = read-out: IC50 ± SEM (nM) PC-3, Table 21, Prostate, n = 3
[13] = read-out: IC50 ± SEM (nM) Dn-145, Table 21, Prostate, n = 3
[14] = read-out: IC50 ± SEM (nM) LNCaP, Table 21, Prostate, n = 3
[15] = read-out: IC50 ± SEM (nM) PPC-1, Table 21, Prostate, n = 3
[16] = Table 6, read-out: IC50 ±SEM (nM), B16-F1
[17] = Table 6, read-out: IC50 ±SEM (nM), A375
[18] = read-out: IC50 ±SEM (nM), PC-3, Table 6
[19] = read-out: IC50 ±SEM (nM), DU 145, Table 6
[20] = read-out: IC50 ±SEM (nM), LNCaP, Table 6
[21] = read-out: IC50 ±SEM (nM), PPC-1, Table 6
[22] = Mus musculus, B16-F1, read-out: IC50 ± SEM (nM) (n=3), B16-F1, Table 14A
[23] = Mus musculus, B16-F1 melanoma cells, 48 h, SRB, read-out: IC50 ± SEM (nM) B16-F1
[24] = Homo sapiens, A-375, read-out: IC50 ± SEM (nM) (n=3), A375, Table 14A
[25] = Homo sapiens, A-375, A375 melanoma cells, 48 h, SRB, read-out: IC50 ± SEM (nM) A375
[26] = Homo sapiens, PC-3, 96 h, read-out: IC50 ± SEM (nM), PC-3

Compound: COc1cc(C(=O)c2csc(-c3ccc(O)cc3)n2)cc(OC)c1OC [SMART-OH]
- IC50 (B16-F1; [10]): 113 ± 6 nM
- IC50 (A375; [11]): 93 ± 11 nM
- IC50 (PC-3; [12]): 87 ± 5 nM
- IC50 (OVCAR-8): 110 ± 8 nM
- Resistance factor (NCI/ADR-RES; NCI/ADR-RES relative to parent OVCAR-8, 5760 min): 0.4
- IC50 (NCI/ADR-RES; Table 21, Ovarian, n = 3, read-out: IC50 ± SEM (nM) NCI/ADR-RES): 45 ± 5 nM
- % T/C ([1]; 50 mg/kg i.p.): 34%
- IC50 (DU 145 [2]; [13]): 116 ± 14 nM
- IC50 (LNCaP [3]; [14]): 103 ± 9 nM
- IC50 (PPC-1 [4]; [15]): 76 ± 2 nM

Compound: COc1cc(C(=O)c2csc(-c3ccc(CC(N)=O)cc3)n2)cc(OC)c1OC [2q]
- IC50 (B16-F1; [16]): > 20000 nM
- IC50 (A375; [17]): > 20000 nM
- IC50 (PC-3; [18]): > 10000 nM
- IC50 (DU 145 [2]; [19]): > 10000 nM
- IC50 (LNCaP [3]; [20]): > 10000 nM
- IC50 (PPC-1 [4]; [21]): > 10000 nM

Compound: COc1ccc(-c2nc(C(=O)c3ccc(F)cc3)cn2S(=O)(=O)c2ccccc2)cc1 [11cb, (4-fluorophenyl)(2-(4-methoxyphenyl)-1-(phenylsulfonyl)-1H-imidazol-4-yl)methanone]
- IC50 (B16-F1; [22]): 71 ± 8 nM
- IC50 (B16-F1; [23]): 71 ± 8 nM
- IC50 (A375; [24]): 36 ± 5 nM
- IC50 (A375; [25]): 36 ± 5 nM
- IC50 (PC-3; [26]): 33 ± 2 nM
- IC50 (MDA-MB-435): 38 nM
- IC50 (MDA-MB-435/LCC6MDR1): 30 nM
- IC50 ([5]; Prostate cell): 0.043 µM
- IC50 (DU 145 [6]): 52 ± 3 nM
- IC50 (LNCaP [7]): 31 ± 2 nM
- IC50 (PPC-1 [8]): 32 ± 0.7 nM

Compound: COc1cc(C(=O)c2csc(-c3ccc(F)cc3)n2)cc(OC)c1OC [SMART-F]
- IC50 (B16-F1; [10]): 43 ± 21 nM
- IC50 (A375; [11]): 33 ± 14 nM
- IC50 (PC-3; [12]): 13 ± 1 nM
- IC50 (OVCAR-8): 34 ± 3 nM
- Median time to reach 600 mm^3. ([9]; 15 mg/kg i.p.): 29 days
- % T/C ([9]; 15 mg/kg i.p.): 28%
- Total log cell kill ([9]; 15 mg/kg i.p., doubling time 4.6 d): 0.7
- % T/C ([1]; 5 mg/kg i.p.): 21%
- % T/C ([1]; 15 mg/kg i.p.): 24%
- IC50 (LNCaP [3]; [14]): 6 ± 1 nM

Compound: COc1cc(C(=O)c2csc(-c3ccccc3)n2)cc(OC)c1OC [SMART-H]
- IC50 (B16-F1; [10]): 55 ± 5 nM
- IC50 (A375; [11]): 28 ± 5 nM
- IC50 (PC-3; [12]): 21 ± 1 nM
- IC50 (OVCAR-8): 35 ± 2 nM
- Median time to reach 600 mm^3. ([9]; 20 mg/kg i.p.): 28 days
- % T/C ([9]; 20 mg/kg i.p.): 30%
- % T/C ([1]; 5 mg/kg i.p.): 29%
- % T/C ([1]; 15 mg/kg i.p.): 4%
- IC50 (DU 145 [2]; [13]): 71 ± 4 nM
- IC50 (LNCaP [3]; [14]): 28 ± 4 nM
- IC50 (PPC-1 [4]; [15]): 43 ± 5 nM

Compound: COc1cc(C(=O)c2csc(-c3ccccc3)n2)cc(OC)c1OCCN1C(=O)c2ccccc2C1=O [compound 20]
- IC50 (B16-F1; [16]): 42 nM
- IC50 (A375; [17]): 38 nM
- IC50 (PC-3; [18]): 73 nM
- IC50 (DU 145 [2]; [19]): 121 nM
- IC50 (LNCaP [3]; [20]): 65 nM
- IC50 (PPC-1 [4]; [21]): 73 nM

Compound: COc1cc(C(=O)c2csc(-c3ccc(C)cc3)n2)cc(OC)c1OC [2m]
- IC50 (B16-F1; [16]): 21 nM
- IC50 (A375; [17]): 11 nM
- IC50 (PC-3; [18]): 8.7 nM
- IC50 (DU 145 [2]; [19]): 6.9 nM
- IC50 (PPC-1 [4]; [21]): 6.2 nM

Compound: CC(=O)O[C@@]12CO[C@@H]1C[C@H](O)[C@@]1(C)C(=O)[C@H](O)C3=C(C)[C@@H](OC(=O)[C@H](O)[C@@H](NC(=O)OC(C)(C)C)c4ccccc4)C[C@@](O)([C@@H](OC(=O)c4ccccc4)[C@H]21)C3(C)C [Dooetaxel]
- TGI (%) (PC-3/TxR tumors; end point day 19): 56%
- Tumor size (mm^3) End (PC-3/TxR tumors; end point day 19): 999 ± 905 mm^3
- Tumor size (mm^3) Start (PC-3/TxR tumors; start): 170 ± 86 mm^3

Compound: COc1cc(C(=O)c2csc(-c3cc(F)c(F)c(F)c3)n2)cc(OC)c1OC [2p]
- IC50 (B16-F1; [16]): 16600 nM
- IC50 (A375; [17]): 2200 nM
- IC50 (PC-3; [18]): 2380 nM
- IC50 (DU 145 [2]; [19]): 1900 nM
- IC50 (LNCaP [3]; [20]): > 10000 nM
- IC50 (PPC-1 [4]; [21]): 1080 nM

Compound: O=C(c1ccc(F)cc1)c1c[nH]c(-c2ccc(O)cc2)n1 [12kb]
- IC50 (B16-F1; B16-F1 melanoma cells, 48 h, SRB, read-out: IC50 ± SEM (nM) B16-F1): > 10000 nM
- IC50 (WM-164; WM164 melanoma cells, 48 h, SRB, read-out: IC50 ± SEM (nM) WM164): > 10000 nM
- IC50 (PC-3; read-out: IC50 ± SEM (nM) PC-3, PC-3 prostate cancer cells, 96 h, SRB): > 10000 nM
- IC50 ([5]; ABI compounds, Tables 11-13): 33 µM
- IC50 (DU 145 [2]; read-out: IC50 ± SEM (nM) Du 145, Du 145 prostate cancer cells, 96 h, SRB): > 10000 nM
- IC50 (LNCaP [3]; read-out: IC50 ± SEM (nM) LNCaP, LNCaP prostate cancer cells, 96 h, SRB): 10000 nM
- IC50 (PPC-1 [4]; read-out: IC50 ± SEM (nM) PPC-1, PPC-1 prostate cancer cells, 96 h, SRB): > 10000 nM

Compound: O=C(c1ccc(F)cc1)c1cn(S(=O)(=O)c2ccccc2)c(-c2ccc(Cl)cc2)n1 [11fb, (2-(4-chlorophenyl)-1-(phenylsulfonyl)-1H-imidazol-4-yl)(4-fluorophenyl)methanone]
- IC50 (B16-F1; [22]): 107 ± 12 nM
- IC50 (B16-F1; [23]): 107 ± 12 nM
- IC50 (A375; [24]): 88 ± 9 nM
- IC50 (A375; [25]): 88 ± 9 nM
- IC50 (WM-164; Homo sapiens, WM164, read-out: IC50 ± SEM (nM) (n=3), WM-164, Table 14A): 74 ± 8 nM
- IC50 (WM-164; Homo sapiens, WM164 melanoma cells, 48 h, SRB, read-out: IC50 ± SEM (nM) WM164): 70 ± 6 nM
- IC50 (PC-3; [26]): 76 ± 2 nM
- IC50 (MDA-MB-435): 50 nM
- IC50 (MDA-MB-435/LCC6MDR1): 35 nM
- IC50 (DU 145 [6]): 64 ± 1 nM
- IC50 (LNCaP [7]): 48 ± 1 nM
- IC50 (PPC-1 [8]): 54 ± 1 nM
